Assay results as given in patent US20120115951A1, “PROTECTIVE ACTION OF SEROFENDIC ACID ON CARDIAC MUSCLE” (Eisai R & D Managment Co., Ltd, priority 2005, published 2012).

Key:
[1] = test system: neonatal rat cardiac myocytes; assay: TUNEL staining and DAPI staining of neonatal rat cardiac myocytes exposed to H2O2; type: cell-based
Procedure: (§1) Cardiac ventricular myocytes were prepared from 1-2-day-old Wister rats and cultured as previously described (Akao M, et al., Circ Res. 2001; 88:1267-75). In brief, the hearts were removed, and the ventricles were minced into small fragments, which were digested by trypsin dissociation. The dissociated cells were preplated for 1 hour to enrich the culture with myocytes. The non-adherent myocytes were then plated in plating medium consisting of Dulbecco's Modified Eagle Medium (DMEM) (Nacalai tesque; Kyoto, Japan) supplemented with 5% fetal calf serum, penicillin (100 U/ml), streptomycin ([…]), and 2 μg/ml vitamin B12. The final myocyte cultures contained >90% cardiac myocytes. The cells were maintained at 37° C. in the presence of 5% CO2 in a humidified incubator. Bromodeoxyuridine (0.1 mM) was incubated in the medium for the first 3 days after plating to inhibit fibroblast growth. […]
TUNEL staining was performed according to the manufacturer's protocol (Roche; Indianapolis, Ind.). Fluorescein labels incorporated in nucleotide polymers were detected with a fluorescence microscope (Axioskop 2 plus, Zeiss; Thornwood, N.Y.).
Cells were stained with the DNA binding dye DAPI (5 μM, Molecular Probes; Eugene, Oreg.). The nuclear morphology of cells were visualized and photographed with the fluorescence microscope. […]

[2] = test system: neonatal rat cardiac myocytes; assay: MTS assay of cell viability after H2O2; type: cell-based; conditions: 100 μM SFA; H2O2 treatment 3 hours; P<0.01 vs H group
Procedure: as §1, with “incubator.” for “incubator. Bromodeoxyuridine (0.1 mM) was incubated in the medium for the first 3 days after plating to inhibit fibroblast growth.”
Cell viability was quantified based on metabolic activity using the MTS assay (Promega; Madison, Wis.). […] The quantity of formazan product is directly proportional to the number of living cells in culture (Zhang H M, et al., Circ Res. 2002; 90:1251-8).
The cultures were incubated in serum-free medium containing 20 μl/well of the MTS tetrazolium compound for 3 hours at 37° C. The absorbance of formazan products was photometrically measured at 490 nm with a microplate reader, ARVOsx (PerkinElmer; Shelton, Wash.). Cell viability was expressed as the percentage of the absorbance measured in the control group. […]

[3] = test system: neonatal rat cardiac myocytes; assay: FACS analysis of ΔΨm in TMRE-loaded cells; type: cell-based; conditions: for protection against ΔΨm loss in the presence of mitoKATP channel blocker 5HD: 100 μM drug plus 500 μM 5HD
Procedure: Cardiac ventricular myocytes were prepared from 1-2-day-old Wister rats and cultured as previously described (Akao M, et al., Circ Res. 2001; 88:1267-75). In brief, the hearts were removed, and the ventricles were minced into small fragments, which were digested by trypsin dissociation. The dissociated cells were preplated for 1 hour to enrich the culture with myocytes. The non-adherent myocytes were then plated in plating medium consisting of Dulbecco's Modified Eagle Medium (DMEM) (Nacalai tesque; Kyoto, Japan) supplemented with 5% fetal calf serum, penicillin (100 U/ml), streptomycin ([…]), and 2 μg/ml vitamin B12. The final myocyte cultures contained >90% cardiac myocytes. The cells were maintained at 37° C. in the presence of 5% CO2 in a humidified incubator. Bromodeoxyuridine (0.1 mM) was incubated in the medium for the first 3 days after plating to inhibit fibroblast growth. Cultures were then placed in serum-free DMEM containing vitamin B12 and transferrin, 24 hours prior to the drug treatment.
(§2) To monitor ΔΨm, cells were loaded with 100 nM tetramethylrhodamine ethyl ester (TMRE) (Molecular Probes) at 37° C. for 20 minutes. To monitor [Ca^2+]m, the cells were loaded with 2 μM […] (Molecular Probes) at 37° C. for 30 minutes. We assayed intracellular ROS production using chloromethyl-2,7-dichlorodihydrofluorescein diacetate (DCF) (Molecular Probes). Cells were loaded with 4 μM DCF at 37° C. for 30 minutes, and formation of the oxidized derivative was monitored by the increase of green fluorescence.
For FACS analysis of ΔΨm, TMRE-loaded cells were harvested by trypsinization at the end of the experimental protocols, and analyzed using FACSAria (BD Biosciences; San Jose, Calif.) (20,000 cells/sample). The fluorescence intensity of TMRE was monitored at 582 nm (FL-2). The FACS data were analyzed using analysis software (WinMDI; http://facs/scripps.edu/software.html).
C=Control cells; H=Cells exposed to 100 μM H2O2 for 1 hour; SFA=Cells pretreated with 100 μM SFA followed by 100 μM H2O2 for 1 hour. In all histograms, the position of the major population of cells in the control group is indicated by a vertical dashed line. […] Cells were pretreated with various concentrations of SFA followed by 100 μM H2O2 for 1 hour. C=Control cells. SFA preserved ΔΨm in a concentration-dependent manner
FIG. 2c and FIG. 2d show the summarized data of the percentage of cells that maintain high (>200) TMRE fluorescence. The cells were pre-treated with various drugs shown in the figure and then treated with 100 μM H2O2 for 1 hour. DZ=100 μM diazoxide; 5HD=500 μM 5-hydroxydecanoate.

[4] = test system: neonatal rat cardiac myocytes; assay: Time-lapse confocal analysis of ΔΨm loss (TMRE fluorescence); type: cell-based
Procedure: as §2
Cells plated on 35 mm glass-bottom dishes were maintained at 37° C. in the presence of 5% CO2 using a heater platform installed on a microscope stage, and were placed in serum-free DMEM. After the desired temperature was reached, time-lapse confocal microscopy was started with 2 minute intervals, using a 20× objective lens. Images were taken with laser scanning confocal microscopy (Zeiss, LSM510). TMRE and rhod-2 AM were excited at 543 nm using a helium/neon laser. DCF was excited at 488 nm using an argon laser.
(§3) Twenty-five cells were randomly selected in each scan, and the red or green fluorescence intensity was sequentially monitored.
To further confirm the protective effect of SFA in preventing the loss of ΔΨm, the present inventors examined the time-dependent changes of ΔΨm on a single-cell basis (FIG. 3). Time-lapse confocal analysis of cardiac myocytes loaded with TMRE was performed at 2-minute intervals. Time-lapse scanning began immediately after the application of 50 μM H2O2.
C=Control cells; H=Cells exposed to 100 μM H2O2 for 1 hour; SFA=Cells pretreated with 100 μM SFA followed by 100 μM H2O2 for 1 hour. Scale bars at 0 min frames: 20 μm.

[5] = test system: neonatal rat cardiac myocytes; assay: Time-lapse confocal analysis of intracellular ROS production (DCF fluorescence); type: cell-based; conditions: 100 μM SFA pretreatment; H2O2 for 30 min (50 μM, 100 μM elsewhere in the source)
Procedure: as §2
Cells plated on 35 mm glass-bottom dishes were maintained at 37° C. in the presence of 5% CO2 using a heater platform installed on a microscope stage, and were placed in serum-free DMEM. After the desired temperature was reached, time-lapse confocal microscopy was started with 2 minute intervals, using a 20× objective lens. Images were taken with laser scanning confocal microscopy (Zeiss, LSM510). […]
as §3
ROS is one of the most important inducers of MPTP opening. To investigate whether the suppression of ROS production is associated with the protective effects of SFA, the present inventors assessed the change of DCF fluorescence by 50 μM H2O2 stimulation in each group using time-lapse confocal microscopy (FIG. 4). […]

[6] = test system: neonatal rat cardiac myocytes; assay: Time-lapse confocal analysis of [Ca2+]m (rhod-2 fluorescence); type: cell-based; conditions: 100 μM SFA pretreatment; H2O2 for 1 hour (50 μM, 100 μM elsewhere in the source)
Procedure: as §2
Cells plated on 35 mm glass-bottom dishes were maintained at 37° C. in the presence of 5% CO2 using a heater platform installed on a microscope stage, and were placed in serum-free DMEM. After the desired temperature was reached, time-lapse confocal microscopy was started with 2 minute intervals, using a 20× objective lens. […]
as §3
Calcium overload in mitochondrial matrix is one of the critical triggers of cell death and is also an important inducer of MPTP opening. To monitor the [Ca^2+]m level, the present inventors performed time-lapse confocal microscopy using the [Ca^2+]m sensitive dye, rhod-2, and observed the change of fluorescence due to 50 μM H2O2 stimulation in each group (FIG. 5). […]

[7] = Blood pressure measurement after femoral vein administration; type: in vivo, Sprague-Dawley male rats; conditions: 10 mg/kg into femoral vein; monitored until 10 minutes after administration; anesthetized rats
Procedure: The distal end of the common carotid artery of 8-week-old Sprague-Dawley male rats (about 250 g) was ligated under the effect of pentobarbital anesthetic. Then, to the proximate end thereof, a polyethylene tube filled with heparin-containing saline and connected to a pressure converter was inserted. Changes in blood pressure were recorded by a pen recorder.
A 24-gauge injection needle connected to a syringe via the tube was inserted into the femoral vein, and the liquid drug was injected over 1 to 2 minutes. The blood pressure was monitored from before the liquid drug administration until 10 minutes after the administration.
Serofendic acid was dissolved in Meylon (7% NaHCO3) at a concentration of 4 mg/mL. The blood pressure of each individual rat was measured after only the solvent was administered. Then, 10 mg/kg of serofendic acid was administered. The average of the blood pressure for 3 minutes before the administration of each of SFA and Meylon was set as 100%.

[8] = test system: cultured cortical and striatal neurons; conditions: in vitro; cited from earlier work
[9] = electron spin resonance analysis; cited from earlier work
[10] = test system: isolated cardiac myocytes; conditions: previously reported (Akao et al. 2001); cited from earlier work
[11] = 25 randomly selected cells, 100 μM SFA, H2O2

C[S+]([O-])CC1C2CCC3(CCC4C(C)(C(=O)O)CCCC4(C)C3C2)C1O (single isomer, unassigned; ent-15) [SFA, ent-15β-hydroxy-17-methylsulfinyl-16α-atisan-19-oic acid]
nuclear morphology (DAPI staining) ([1]; 100 μM SFA, 100 μM H2O2 for 16 hours): significant protective effect in the preservation of nuclear morphology
TUNEL-positive nuclei ([1]; pretreated with 100 μM SFA followed by 100 μM H2O2 for 16 hours, compared with H2O2 group): obviously fewer TUNEL-positive nuclei
cellular viability evaluated by MTS assay [2]: partly but significantly protected against H2O2-induced cytotoxicity
concentration at which the ΔΨm-preserving effect reached its maximum level ([3]; 100 μM H2O2 for 1 hour): 100 µM
protective effect in preventing the loss of ΔΨm, versus diazoxide ([3]; 100 μM SFA vs 100 μM diazoxide, 100 μM H2O2 for 1 hour): comparable to 100 μM diazoxide
effect of co-application with diazoxide on ΔΨm preservation ([3]; 100 μM diazoxide and 100 μM SFA vs SFA alone, 100 μM H2O2): did not exhibit an additive effect
protection against ΔΨm loss in the presence of mitoKATP channel blocker 5HD ([3]; 100 μM H2O2): completely blocked
effect on control level of ΔΨm ([3]; SFA alone in the absence of H2O2): did not affect the control level of ΔΨm
loss of ΔΨm (percentage of cells that maintain high (>200) TMRE fluorescence) ([3]; various concentrations of SFA followed by 100 μM H2O2 for 1 hour): prevented the loss of ΔΨm in a concentration-dependent manner
TMRE fluorescence over 60 minutes (time-lapse) ([4]; 100 μM SFA pretreatment, H2O2 (50 μM, 100 μM elsewhere in the source)): remarkably preserved
number of cells undergoing the dissipation of ΔΨm [4, 11]: decreased the number of cells undergoing the dissipation of ΔΨm
onset of ΔΨm loss [4, 11]: delayed the onset of ΔΨm loss
DCF fluorescence (intracellular ROS) [5]: suppressed the increase in DCF fluorescence
rhod-2 fluorescence ([Ca2+]m overload) [6]: partly attenuated the [Ca^2+]m overload
change in average blood pressure [7]: no significant change in average blood pressure was observed
protection of neurons against glutamate, nitric oxide, and H2O2 cytotoxicity [8]: exhibited the ability to protect cultured cortical and striatal neurons
hydroxyl radical-scavenging activity [9]: exhibits hydroxyl radical-scavenging activity

CCCCCC(O)CCCC(=O)O (centres unmarked) [5HD, 5-hydroxydecanoate, reference compound]
effect of 5HD alone on the loss of ΔΨm elicited by H2O2 ([3]; 500 μM 5HD, 100 μM H2O2): did not aggravate the loss of ΔΨn

CC1=NS(=O)(=O)c2cc(Cl)ccc2N1 [diazoxide, reference compound]
protection against ΔΨm loss in the presence of mitoKATP channel blocker 5HD ([3]; 100 μM H2O2): completely blocked
loss of ΔΨm induced by oxidative stress [10]: prevents the loss of ΔΨm induced by oxidative stress in a concentration-dependent manner
